Patent US6737383B1, “Herbicidal oxadiazolidines” (priority 1999, dated 2004)

Tests used:
[1] = test system: Panicum dichotomiflorum (PANDI); assay: Test F preemergence, alone and in mixture with rimsulfuron, PANDI; format: in vivo; details: 21 days after treatment, 0-100 scale
How it was run: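 Greenhouse pot plants treated preemergence with compound at 70 and 105 g ai/ha, rimsulfuron at 8.8 and 17.5 g ai/ha, or mixtures; 27° C day/21° C night, 14 hour photoperiod. Injury scored at 21 days after treatment against solvent-sprayed controls; expected additive effect of mixtures calculated by Colby's equation.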

certain weeds = assay: Test F overall statement on synergism with rimsulfuron (Colby's equation); format: in vivo; details: combinations with rimsulfuron, preemergence
Experimental: Abutilon theophrasti (ABUTH), Chenopodium album (CHEAL), Amaranthus rudis (AMATA), Setaria […]), Panicum dichotomiflorum (PANDI), and Digitaria sanguinalis (DIGSA) were grown from seed in pots of an artificial potting mixture in a greenhouse. Compounds of the present invention were applied at 70 and 105 g ai/ha preemergence. Rimsulfuron was applied at 8.8 and 17.5 g ai/ha. Mixtures of the compounds of the present invention and rimsulfuron were also applied. Following application, the plants were maintained by watering as needed. A fertilizer solution of Peter's 20-20-20 (10 pounds/5 gallons of water) plus Sprint 330, a Iron Chelate micronutrient, (113.5 grams/5 gallons of water) was injected into the water with an Anderson fertilizer injection system to provide approximately 219 ppm of nitrogen with each watering. Artificial lighting was used to supplement natural light to produce a 14 hour photoperiod and: an additional one hour light period was used between 1:00 am to 2:00 am for a night interruption. Greenhouse temperatures were targeted for 27° C. in the day and 21° C. at night. At 21 days after treatment, all plants were evaluated for injury as compared to control plants that were sprayed only with non-phytotoxic solvent. […] Colby's equation was used to calculate the expected additive herbicidal effect of the mixtures of Compound 21 and the mixture partners listed above. […]

eastern black nightshade = assay: Test C postemergence eastern black nightshade; format: in vivo, Solanum ptycanthum; details: 0 to 100 scale, 0 no effect, 100 complete control
Experimental: (§1) Compounds evaluated in this test were formulated in a non-phytotoxic solvent mixture which included a surfactant and applied to plants that were grown for various periods of time before treatment (postemergence application). A mixture of sandy loam soil and greenhouse potting mix in a 60:40 ratio was used for the postemergence test.
(§2) Plantings of these crops and weed species were adjusted to produce plants of appropriate size for the postemergence test. All plant species were grown using normal greenhouse practices. Crop and weed species include arrowleaf sida (Sida rhombifolia), barnyardgrass (Echinochloa crus-galli), cocklebur (Xanthium strumarium), common ragweed (Ambrosia elatior), corn (Zea mays), cotton (Gossypium hirsutum), eastern black nightshade (Solanum ptycanthum), fall panicum (Panicum dichotomiflorum), field bindweed (Convolvulus arvensis), giant foxtail (Setaria faberii), hairy beggarticks (Bidens pilosa), ivyleaf morningglory (Ipomoea hederacea), johnsongrass (Sorghum halepense), ladysthumb smartweed (Polygonum persicaria), lambsquarters (Chenopodium album), large crabgrass (Digitaria sanguinalis), purple nutsedge (Cyperus rotundus), redroot pigweed (Amaranthus retroflexus), soybean (Glycine max), surinam grass (Brachiaria decumbens), velvetleaf (Abutilon theophrasti) and wild poinsettia (Euphorbia heterophylla).
(§3) Treated plants and untreated controls were maintained in a greenhouse for approximately 14, to 21 days, after which all treated plants were compared to untreated controls and visually evaluated. Plant response ratings, summarized in Table C, were based upon a 0 to 100 scale where 0 was no effect and 100 was complete control. A dash response (−) means no test result.

johnsongrass = assay: Test C postemergence johnsongrass; format: in vivo, Sorghum halepense; details: 0 to 100 scale, 0 no effect, 100 complete control
Experimental: as §1, §2, §3

giant foxtail = assay: Test C postemergence giant foxtail; format: in vivo, Setaria faberii; details: 0 to 100 scale, 0 no effect, 100 complete control
Experimental: as §1, §2, §3

[2] = test system: Abutilon theophrasti (ABUTH); assay: Test F preemergence, alone and in mixture with rimsulfuron, ABUTH; format: in vivo; details: 21 days after treatment, 0-100 scale
Experimental: (§4) Abutilon theophrasti (ABUTH), Chenopodium album (CHEAL), Amaranthus rudis (AMATA), Setaria faberii (SETFA), Panicum dichotomiflorum (PANDI), and Digitaria sanguinalis (DIGSA) were grown from seed in pots of an artificial potting mixture in a greenhouse. Compounds of the present invention were applied at 70 and 105 g ai/ha preemergence. Rimsulfuron was applied at 8.8 and 17.5 g ai/ha. Mixtures of the compounds of the present invention and rimsulfuron were also applied.
(§5) Following application, the plants were maintained by watering as needed. A fertilizer solution of Peter's 20-20-20 (10 pounds/5 gallons of water) plus Sprint 330, a Iron Chelate micronutrient, (113.5 grams/5 gallons of water) was injected into the water with an Anderson fertilizer injection system to provide approximately 219 ppm of nitrogen with each watering. Artificial lighting was used to supplement natural light to produce a 14 hour photoperiod and: an additional one hour light period was used between 1:00 am to 2:00 am for a night interruption. Greenhouse temperatures were targeted for 27° C. in the day and 21° C. at night. At 21 days after treatment, all plants were evaluated for injury as compared to control plants that were sprayed only with non-phytotoxic solvent.
(§6) Colby's equation was used to calculate the expected additive herbicidal effect of the mixtures of Compound 21 and the mixture partners listed above. […]

Setaria faberii (SETFA) = assay: Test F preemergence, alone and in mixture with rimsulfuron, SETFA; format: in vivo; details: 21 days after treatment, 0-100 scale
Experimental: as §4, §5, §6

surinam grass = assay: Test C postemergence surinam grass; format: in vivo, Brachiaria decumbens; details: 0 to 100 scale, 0 no effect, 100 complete control
Experimental: as §1, §2, §3

soybean = assay: Test C postemergence soybean; format: in vivo, Glycine max; details: 0 to 100 scale, 0 no effect, 100 complete control
How it was run: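 Compounds in a non-phytotoxic solvent with surfactant were sprayed postemergence on greenhouse-grown plants in 60:40 sandy loam/potting mix. After about 14 to 21 days, visual ratings against untreated controls on a 0 (no effect) to 100 (complete control) scale.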

[3] = Alone: Cmpd. rate 70, Rimsulfuron 0
[4] = Alone: Cmpd. rate 105, Rimsulfuron 0

CC(C)N(C(=O)n1oc(=O)n(C(C)C)c1=O)c1ccccc1 [Compound 113]
PANDI Observed [1, 3]: 100%
PANDI Observed [1, 4]: 95%
Weed control of combination with rimsulfuron compared with expectation from Colby's equation (certain weeds): better control of certain weeds than expected
Plant response rating E. blacknightsh (eastern black nightshade; Rate 140 g/ha): 50
Plant response rating E. blacknightsh (eastern black nightshade; Rate 280 g/ha): 50
Plant response rating E. blacknightsh (eastern black nightshade; Rate 1120 g/ha): 95
Plant response rating, Johnsongrass (johnsongrass; Rate 140 g/ha): 0
Plant response rating, Johnsongrass (johnsongrass; Rate 280 g/ha): 20
Plant response rating, Johnsongrass (johnsongrass; Rate 560 g/ha): 60
Plant response rating, Johnsongrass (johnsongrass; Rate 1120 g/ha): 95
Plant response rating, Giant foxtail (giant foxtail; Rate 140 g/ha): 20
Plant response rating, Giant foxtail (giant foxtail; Rate 280 g/ha): 70
Plant response rating, Giant foxtail (giant foxtail; Rate 560 g/ha): 80
Plant response rating, Giant foxtail (giant foxtail; Rate 1120 g/ha): 80
ABUTH Observed [2, 3]: 45%
ABUTH Observed [2, 4]: 65%
SETFA Observed (Setaria faberii (SETFA); [3]): 60%
SETFA Observed (Setaria faberii (SETFA); [4]): 65%
Plant response rating, Surinam grass (surinam grass; Rate 140 g/ha): 0
Plant response rating, Surinam grass (surinam grass; Rate 280 g/ha): 40
Plant response rating, Surinam grass (surinam grass; Rate 560 g/ha): 90
Plant response rating, Surinam grass (surinam grass; Rate 1120 g/ha): 90
Plant response rating, Soybean (soybean; Rate 140 g/ha): 40
Plant response rating, Soybean (soybean; Rate 280 g/ha): 70
Plant response rating, Soybean (soybean; Rate 560 g/ha): 85
Plant response rating, Soybean (soybean; Rate 1120 g/ha): 85
